Experimental findings from PMC11173485, “Connecting GSK-3β Inhibitory Activity with IKK-β or ROCK-1 Inhibition to Target Tau Aggregation and Neuroinflammation in Alzheimer’s Disease—Discovery, In Vitro and In Cellulo Activity of Thiazole-Based Inhibitors” (Molecules, 2024) are described below.

What is called IC50 is the concentration that gives 50% inhibition.

Holding throughout (assay type): biochemical
One assay deals with T1, IKK-β (Homo sapiens, UniProt O14920).
T1 construct: purchased Promega
T1 sequence (O14920 1-756): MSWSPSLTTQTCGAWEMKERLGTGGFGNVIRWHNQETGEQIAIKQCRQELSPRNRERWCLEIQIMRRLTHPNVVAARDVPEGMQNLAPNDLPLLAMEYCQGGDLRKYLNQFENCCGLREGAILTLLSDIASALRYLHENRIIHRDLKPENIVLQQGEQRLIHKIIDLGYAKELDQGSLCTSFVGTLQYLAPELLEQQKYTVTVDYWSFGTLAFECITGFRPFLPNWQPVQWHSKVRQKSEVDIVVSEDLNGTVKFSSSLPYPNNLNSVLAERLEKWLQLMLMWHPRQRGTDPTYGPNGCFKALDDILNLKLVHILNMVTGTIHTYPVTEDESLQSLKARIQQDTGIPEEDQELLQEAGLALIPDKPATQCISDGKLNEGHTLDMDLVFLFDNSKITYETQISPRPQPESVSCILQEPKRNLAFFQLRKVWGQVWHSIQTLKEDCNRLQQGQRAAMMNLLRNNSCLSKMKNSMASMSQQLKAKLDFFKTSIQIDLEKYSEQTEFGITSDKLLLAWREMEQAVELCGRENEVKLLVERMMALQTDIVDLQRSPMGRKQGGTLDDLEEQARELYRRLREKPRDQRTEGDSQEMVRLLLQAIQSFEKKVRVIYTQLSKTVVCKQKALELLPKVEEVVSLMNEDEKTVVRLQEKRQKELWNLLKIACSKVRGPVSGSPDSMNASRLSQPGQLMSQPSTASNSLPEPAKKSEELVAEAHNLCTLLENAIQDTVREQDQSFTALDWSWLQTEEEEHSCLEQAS
Briefly: ADP-Glo kinase assay, IKK-β inhibition. The note with it: for inhibition at 10 µM: mean ± SD, read-out: % inh. at 10 µM IKK-β. The source says:
(§1) We evaluated the inhibitory activity of the final compounds against GSK-3β, IKK-β, and ROCK-1 kinases using the commercially available ADP-Glo™ kinase assay. The method was based on the measurement of luminescence that correlates with kinase activity. […] The latter are inhibitors of the kinases of interest and were integral to the design of our studies.
(§2) Promega’s Kinase Enzyme Systems (Promega; Madison, WI, USA) were used to determine the activities of the tested compounds against the human recombinant kinases GSK-3β, IKK- β, and ROCK-1. The assays were performed according to the provided manufacturer’s instruction, based on the optimized conditions of the enzymatic reactions, using the low-volume, white polystyrene, 384-well plates. The ADP-Glo™ Assay (Promega; Madison, WI, USA) was used for bioluminescent detection of the kinase activity. Stock solutions of the tested compounds in DMSO (1mM) were diluted with the Kinase Assay Buffer before use (40 mM Tris, pH 7.5, enriched with 50 µM dithiothreitol; DTT), giving the final desired concentrations. The kinase enzymes, substrates, and ATP solutions were also diluted with the assay buffer prior to use. The GSK-3β, IKK-β, and ROCK-1 substrates were derived from human muscle glycogen synthase 1, human IkBA, and human 40S ribosomal protein S6, respectively. The assay procedure was as follows: At first, the appropriate kinase enzyme (GSK-3β: 10 ng per well; IKK-β: 45 ng per well; ROCK-1: 24 ng per well) was incubated with the tested sample (10 µM in well) for 5 min. The DMSO solution (1% in well) was used in the blank samples instead of the tested inhibitors. After the incubation period, ATP (25 µM per well in the case of GSK-3β and IKK-β kinases; 5 µM per well in the case of ROCK-1 kinase) and an appropriate enzyme substrate (0.2 µg/µL in well) were added to start the enzymatic reaction. The reaction mixture was kept at room temperature for 1 h; then, the ADP-Glo™ reagent was added, to terminate the kinase reaction and deplete any remaining ATP. After 40 min, a second reagent (Kinase Detection Reagent) was applied to convert the obtained ADP to ATP and to generate light from the newly synthesized ATP using a luciferase/luciferin reaction. The mixture was incubated for another 30 min at room temperature before the luminescence was measured. The calculations of the percent of kinases’ inhibition by tested compounds were based on the equation 100 − (S/B) × 100; S and B are the enzyme activities with and without the tested sample, respectively. […] Each compound was evaluated in two independent experiments, with every data point collected in duplicate.

Another assay concerns the target T2, ROCK-1 (Homo sapiens, UniProt Q13464).
T2 construct: purchased Promega
Briefly: ADP-Glo kinase assay, ROCK-1 inhibition. Conditions: for inhibition at 10 µM: mean ± SD, read-out: % inh. at 10 µM ROCK-1; for IC50: mean ± SEM, ATP 5 µM.
Text: as §1
Promega’s Kinase Enzyme Systems (Promega; Madison, WI, USA) were used to determine the activities of the tested compounds against the human recombinant kinases GSK-3β, IKK- β, and ROCK-1. The assays were performed according to the provided manufacturer’s instruction, based on the optimized conditions of the enzymatic reactions, using the low-volume, white polystyrene, 384-well plates. The ADP-Glo™ Assay (Promega; Madison, WI, USA) was used for bioluminescent detection of the kinase activity. Stock solutions of the tested compounds in DMSO (1mM) were diluted with the Kinase Assay Buffer before use (40 mM Tris, pH 7.5, enriched with 50 µM dithiothreitol; DTT), giving the final desired concentrations. The kinase enzymes, substrates, and ATP solutions were also diluted with the assay buffer prior to use. The GSK-3β, IKK-β, and ROCK-1 substrates were derived from human muscle glycogen synthase 1, human IkBA, and human 40S ribosomal protein S6, respectively. […] The DMSO solution (1% in well) was used in the blank samples instead of the tested inhibitors. After the incubation period, ATP (25 µM per well in the case of GSK-3β and IKK-β kinases; 5 µM per well in the case of ROCK-1 kinase) and an appropriate enzyme substrate (0.2 µg/µL in well) were added to start the enzymatic reaction. The reaction mixture was kept at room temperature for 1 h; then, the ADP-Glo™ reagent was added, to terminate the kinase reaction and deplete any remaining ATP. After 40 min, a second reagent (Kinase Detection Reagent) was applied to convert the obtained ADP to ATP and to generate light from the newly synthesized ATP using a luciferase/luciferin reaction. The mixture was incubated for another 30 min at room temperature before the luminescence was measured. The calculations of the percent of kinases’ inhibition by tested compounds were based on the equation 100 − (S/B) × 100; S and B are the enzyme activities with and without the tested sample, respectively. […]. IC50 results were obtained using nonlinear regression (GraphPad Prism 9; GraphPad Software, San Diego, CA, USA) by plotting the residual enzyme activities against the applied inhibitor concentration. Each compound was evaluated in two independent experiments, with every data point collected in duplicate.
On the technique in general: ADP-Glo turns the ADP formed in a reaction into a luminescent signal.

The target in the next assay is GSK-3β (Homo sapiens, UniProt P49841). The assay can be described thus: ADP-Glo kinase assay, GSK-3β inhibition. Also on record: purchased Promega. Conditions: for inhibition at 10 µM: mean ± SD, read-out: % inh. at 10 µM GSK-3β; for IC50: mean ± SEM, ATP 25 µM.
Text: as §1, §2

Sequence of GSK-3β (P49841 whole entry): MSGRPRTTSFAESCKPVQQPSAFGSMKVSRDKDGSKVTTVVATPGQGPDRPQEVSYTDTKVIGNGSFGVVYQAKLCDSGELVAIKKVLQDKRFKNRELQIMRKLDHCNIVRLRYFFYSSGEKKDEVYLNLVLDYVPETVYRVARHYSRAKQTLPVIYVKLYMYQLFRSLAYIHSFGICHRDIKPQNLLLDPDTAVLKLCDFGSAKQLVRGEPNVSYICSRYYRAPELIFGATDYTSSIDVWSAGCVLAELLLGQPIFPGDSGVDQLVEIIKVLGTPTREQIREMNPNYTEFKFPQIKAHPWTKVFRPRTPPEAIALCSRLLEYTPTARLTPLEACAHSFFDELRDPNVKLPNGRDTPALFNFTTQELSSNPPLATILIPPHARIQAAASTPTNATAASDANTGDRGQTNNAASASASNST
T2 sequence (Q13464 whole entry): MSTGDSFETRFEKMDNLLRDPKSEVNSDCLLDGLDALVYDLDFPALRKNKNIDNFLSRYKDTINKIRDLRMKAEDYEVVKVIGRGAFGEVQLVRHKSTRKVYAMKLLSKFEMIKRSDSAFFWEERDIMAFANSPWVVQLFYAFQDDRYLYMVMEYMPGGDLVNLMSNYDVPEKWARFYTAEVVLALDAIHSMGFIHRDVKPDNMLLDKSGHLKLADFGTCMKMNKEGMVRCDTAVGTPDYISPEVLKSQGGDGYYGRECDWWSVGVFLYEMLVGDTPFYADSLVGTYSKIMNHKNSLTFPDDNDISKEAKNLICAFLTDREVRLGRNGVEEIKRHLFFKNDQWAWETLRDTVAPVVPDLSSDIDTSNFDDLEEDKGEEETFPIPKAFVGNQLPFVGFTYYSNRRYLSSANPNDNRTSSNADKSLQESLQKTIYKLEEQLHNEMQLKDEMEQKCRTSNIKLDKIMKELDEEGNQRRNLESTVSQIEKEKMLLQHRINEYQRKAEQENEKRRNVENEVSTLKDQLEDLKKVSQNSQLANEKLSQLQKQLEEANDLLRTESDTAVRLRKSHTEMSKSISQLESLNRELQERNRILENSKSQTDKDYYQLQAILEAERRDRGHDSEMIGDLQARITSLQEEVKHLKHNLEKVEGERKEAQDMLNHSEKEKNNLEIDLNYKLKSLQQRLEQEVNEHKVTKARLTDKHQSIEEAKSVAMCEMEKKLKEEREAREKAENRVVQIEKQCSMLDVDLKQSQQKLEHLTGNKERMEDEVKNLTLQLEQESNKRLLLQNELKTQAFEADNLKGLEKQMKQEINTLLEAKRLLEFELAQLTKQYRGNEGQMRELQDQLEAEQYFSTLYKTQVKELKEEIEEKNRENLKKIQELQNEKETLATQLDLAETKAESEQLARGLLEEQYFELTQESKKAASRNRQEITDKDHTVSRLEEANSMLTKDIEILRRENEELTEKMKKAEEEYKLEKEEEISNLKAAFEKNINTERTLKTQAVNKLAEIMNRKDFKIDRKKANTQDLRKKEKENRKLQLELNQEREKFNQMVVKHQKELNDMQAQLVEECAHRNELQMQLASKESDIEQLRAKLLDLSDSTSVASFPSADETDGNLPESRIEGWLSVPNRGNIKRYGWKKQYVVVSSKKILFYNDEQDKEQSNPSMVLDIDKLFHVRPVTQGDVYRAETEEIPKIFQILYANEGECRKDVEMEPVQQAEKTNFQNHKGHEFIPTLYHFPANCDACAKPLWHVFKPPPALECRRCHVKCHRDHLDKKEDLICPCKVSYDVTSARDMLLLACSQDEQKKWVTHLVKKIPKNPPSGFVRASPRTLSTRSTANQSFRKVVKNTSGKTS

Take `CC1(C)NC(=O)c2sc(-c3cccc(NC(=O)C4CC4)c3)cc2N1` [Compound 53, N-(3-(2,2-Dimethyl-4-oxo-1,2,3,4-tetrahydrothieno [3,2-d]pyrimidin-6-yl)phenyl)cyclopropanecarboxamide]: the inhibition at 10 µM was less than 10% at IKK-β, less than 10% at ROCK-1 and 47% on GSK-3β.
Regarding `CC(=O)Nc1cc(-c2cc(NC(N)=O)c(C(N)=O)s2)ccn1` [Compound 47, 5-(2-Acetamidopyridin-4-yl)-3-ureidothiophene-2-carboxamide], the inhibition at 10 µM at IKK-β amounted to 17%; at GSK-3β it was 34%.
For `CC1(C)NC(=O)c2sc(-c3cccc(NS(=O)(=O)C4CCCCC4)c3)cc2N1` [Compound 56, N-(3-(2,2-Dimethyl-4-oxo-1,2,3,4-tetrahydrothieno [3,2-d]pyrimidin-6-yl)phenyl)cyclohexanesulfonamide], the inhibition at 10 µM is less than 10% at IKK-β, 33% at ROCK-1 and less than 10% at GSK-3β.
As for `CC1(C)NC(=O)c2sc(-c3ccnc(NS(C)(=O)=O)c3)cc2N1` [Compound 44, N-(4-(2,2-Dimethyl-4-oxo-1,2,3,4-tetrahydrothieno [3,2-d]pyrimidin-6-yl)pyridin-2-yl)-methanesulfonamide], the results for the inhibition at 10 µM at IKK-β, on ROCK-1 and at GSK-3β were less than 10%, less than 10% and 32%, respectively.
With `CC1(C)NC(=O)c2sc(-c3ccnc(NCC4CC4)c3)cc2N1` [Compound 46, 6-(2-((Cyclopropylmethyl)amino)pyridin-4-yl)-2,2-dimethyl-2,3-dihydrothieno [3,2-d]pyrimidin-4(1H)-one], the inhibition at 10 µM at IKK-β came out at 41%; at GSK-3β, 39%. Besides, the half-maximal inhibitory concentration (IC50) at ROCK-1 is 1730 ± 78 nM.
On to `NC(=O)Nc1cc(-c2ccnc(NC(=O)C3CCCCC3)c2)sc1C(N)=O` [Compound 51, 5-(2-(Cyclohexanecarboxamido)pyridin-4-yl)-3-ureidothiophene-2-carboxamide], for which, at IKK-β, the inhibition at 10 µM is less than 10%. At GSK-3β, this compound gave a half-inhibitory concentration (IC50) of 614 ± 26 nM.
As for `CC(=O)Nc1cc(-c2cc3c(s2)C(=O)NC(C)(C)N3)ccn1` [Compound 38, N-(4-(2,2-Dimethyl-4-oxo-1,2,3,4-tetrahydrothieno [3,2-d]pyrimidin-6-yl)pyridin-2-yl)acetamide], the IC50 on IKK-β (mean ± SEM, ATP 25 µM) is 6.52 ± 0.281 µM; against GSK-3β, 1130 ± 43 nM. Besides, the inhibition at 10 µM on ROCK-1 stood at 50%.
For `NC(=O)Nc1cc(-c2ccnc(NC(=O)c3ccccc3)c2)sc1C(N)=O` [Compound 52, 5-(2-Benzamidopyridin-4-yl)-3-ureidothiophene-2-carboxamide], the values for the inhibition at 10 µM at IKK-β and on ROCK-1 were 30% and 15%, respectively. For the same compound, on GSK-3β, 398 ± 12 nM corresponded to half-maximal inhibition (IC50).
For `CC1(C)NC(=O)c2sc(-c3ccc(F)c(NC(=O)C4CC4)c3)cc2N1` [Compound 54, N-(5-(2,2-Dimethyl-4-oxo-1,2,3,4-tetrahydrothieno [3,2-d]pyrimidin-6-yl)-2-fluorophenyl)-cyclopropanecarboxamide], the inhibition at 10 µM at IKK-β came out at 10%. For the same compound, the IC50 on GSK-3β was found to be 453 ± 13 nM.
On to `CCS(=O)(=O)Nc1cc(-c2cc3c(s2)C(=O)NC(C)(C)N3)ccn1` [Compound 45, N-(4-(2,2-Dimethyl-4-oxo-1,2,3,4-tetrahydrothieno [3,2-d]pyrimidin-6-yl)pyridin-2-yl)-ethanesulfonamide], for which the inhibition at 10 µM at IKK-β is less than 10%; on ROCK-1, less than 10%; at GSK-3β, 40%.
In the case of `CCS(=O)(=O)Nc1cccc(-c2cc3c(s2)C(=O)NC(C)(C)N3)c1` [Compound 55, N-(3-(2,2-Dimethyl-4-oxo-1,2,3,4-tetrahydrothieno [3,2-d]pyrimidin-6-yl)phenyl)ethanesulfonamide], the inhibition at 10 µM at IKK-β is 16%; at ROCK-1 it was less than 10%; at GSK-3β, 11%.
Take `CC1(C)NC(=O)c2sc(-c3ccnc(NC(=O)C4CCCCC4)c3)cc2N1` [Compound 42, N-(4-(2,2-Dimethyl-4-oxo-1,2,3,4-tetrahydrothieno [3,2-d]pyrimidin-6-yl)pyridin-2-yl)-cyclohexanecarboxamide]: the inhibition at 10 µM came out at 18% on IKK-β and 30% at ROCK-1. Moreover, at GSK-3β, it took 830 ± 30 nM to reach half-maximal inhibition (IC50).
For the compound `O=C1NC2(CCCO2)Nc2cc(-c3ccnc(NC(=O)C4CC4)c3)sc21` (stereo not drawn) [Compound 61, N-(4-(4′-Oxo-3′,4,4′,5-tetrahydro-1′H,3H-spiro[furan-2,2′-thieno [3,2-d]pyrimidin]-6′-yl)pyridin-2-yl)cyclopropanecarboxamide], the inhibition at 10 µM was less than 10% on IKK-β and 40% on ROCK-1. This compound registered an IC50 against GSK-3β of 12 nM.
As to `CC1(C)NC(=O)c2sc(-c3ccnc(NC(=O)c4ccccc4)c3)cc2N1` [Compound 43, N-(4-(2,2-Dimethyl-4-oxo-1,2,3,4-tetrahydrothieno [3,2-d]pyrimidin-6-yl)pyridin-2-yl)benzamide], the inhibition at 10 µM at IKK-β came to 38%. Besides, the IC50 was found to be 3740 ± 217 nM against ROCK-1 and 1310 ± 42 nM against GSK-3β.
Regarding `CC1(C)NC(=O)c2sc(-c3cccc(S(=O)(=O)N4CCCCC4)c3)cc2N1` [Compound 57, 2,2-Dimethyl-6-(3-(piperidin-1-ylsulfonyl)phenyl)-2,3-dihydrothieno [3,2-d]pyrimidin-4(1H)-one], the inhibition at 10 µM on IKK-β is 17%; at ROCK-1 it was less than 10%; on GSK-3β it was less than 10%.
